Reference: paper PMC7316778 (Nature Communications, 2020)
Like-named read-outs stand apart in the source and are kept apart here.

What was measured:
Assay in all cases: SelectScreen kinase assay
CDK8/cyclin C = CDK8/cyclin C (Homo sapiens, UniProt P49336); details: read-out: Inhibition at 1 µM (%)
Experimental: (§1) Selectivity profiling assays were performed by the Invitrogen SelectScreen™ Services. […] The concentration of ATP was selected to be equal to the KM, unless indicated otherwise.

CLK4 = CLK4 (Homo sapiens, UniProt Q9HAZ1)
Experimental: as §1

KSR2 = molecular target: T1, KSR2 (Homo sapiens, UniProt Q6VAB6); details: for Inhibition at 1 µM (%): KSR2, ZLYTE, ATP Km app
T1 sequence (Q6VAB6 1-950): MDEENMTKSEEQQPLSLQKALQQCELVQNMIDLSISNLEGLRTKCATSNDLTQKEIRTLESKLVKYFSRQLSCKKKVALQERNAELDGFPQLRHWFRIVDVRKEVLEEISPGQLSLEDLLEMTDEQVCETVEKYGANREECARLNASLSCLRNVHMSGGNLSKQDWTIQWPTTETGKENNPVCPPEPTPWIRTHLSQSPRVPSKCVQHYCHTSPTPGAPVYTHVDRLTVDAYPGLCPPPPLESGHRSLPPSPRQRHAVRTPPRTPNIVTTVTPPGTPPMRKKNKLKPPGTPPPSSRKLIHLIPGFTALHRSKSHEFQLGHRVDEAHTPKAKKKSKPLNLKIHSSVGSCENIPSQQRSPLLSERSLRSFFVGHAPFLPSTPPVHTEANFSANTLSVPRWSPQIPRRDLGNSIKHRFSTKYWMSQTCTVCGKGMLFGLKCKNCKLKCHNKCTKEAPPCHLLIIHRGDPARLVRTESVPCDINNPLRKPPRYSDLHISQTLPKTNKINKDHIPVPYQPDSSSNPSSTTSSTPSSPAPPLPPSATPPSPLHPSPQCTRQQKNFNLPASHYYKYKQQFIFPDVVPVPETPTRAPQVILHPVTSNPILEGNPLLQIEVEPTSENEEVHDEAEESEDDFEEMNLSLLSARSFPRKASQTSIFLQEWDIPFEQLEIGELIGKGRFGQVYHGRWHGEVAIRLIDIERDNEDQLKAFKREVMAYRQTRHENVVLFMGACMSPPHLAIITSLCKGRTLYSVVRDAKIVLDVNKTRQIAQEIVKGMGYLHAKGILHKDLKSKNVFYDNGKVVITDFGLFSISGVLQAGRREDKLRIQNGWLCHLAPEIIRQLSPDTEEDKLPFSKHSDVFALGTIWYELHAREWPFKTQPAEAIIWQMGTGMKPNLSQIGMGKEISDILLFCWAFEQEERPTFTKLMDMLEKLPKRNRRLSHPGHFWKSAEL
Experimental: as §1

MYLK (MLCK) = MYLK (MLCK) (Homo sapiens, UniProt Q15746)
Experimental: as §1

PI4KB (PI4K beta) = PI4KB (PI4K beta) (Homo sapiens, UniProt Q9UBF8)
Experimental: as §1

[1] = molecular target: PIK3CA/PIK3R3 (p110 alpha/p55 gamma) (Homo sapiens, UniProt P42336); details: for Inhibition at 1 µM (%): PIK3CA/PIK3R3 (p110 alpha/p55 gamma), Adapta, ATP 10
Experimental: as §1

PRKCD (PKC delta) = PRKCD (PKC delta) (Homo sapiens, UniProt Q05655); details: 1 h, 1 μM WEL028, 1 h preincubation
Experimental: as §1

[2] = 1 h, 1 μM WEL028, 1 h preincubation

Chain of PIK3CA/PIK3R3 (p110 alpha/p55 gamma) (P42336 whole entry): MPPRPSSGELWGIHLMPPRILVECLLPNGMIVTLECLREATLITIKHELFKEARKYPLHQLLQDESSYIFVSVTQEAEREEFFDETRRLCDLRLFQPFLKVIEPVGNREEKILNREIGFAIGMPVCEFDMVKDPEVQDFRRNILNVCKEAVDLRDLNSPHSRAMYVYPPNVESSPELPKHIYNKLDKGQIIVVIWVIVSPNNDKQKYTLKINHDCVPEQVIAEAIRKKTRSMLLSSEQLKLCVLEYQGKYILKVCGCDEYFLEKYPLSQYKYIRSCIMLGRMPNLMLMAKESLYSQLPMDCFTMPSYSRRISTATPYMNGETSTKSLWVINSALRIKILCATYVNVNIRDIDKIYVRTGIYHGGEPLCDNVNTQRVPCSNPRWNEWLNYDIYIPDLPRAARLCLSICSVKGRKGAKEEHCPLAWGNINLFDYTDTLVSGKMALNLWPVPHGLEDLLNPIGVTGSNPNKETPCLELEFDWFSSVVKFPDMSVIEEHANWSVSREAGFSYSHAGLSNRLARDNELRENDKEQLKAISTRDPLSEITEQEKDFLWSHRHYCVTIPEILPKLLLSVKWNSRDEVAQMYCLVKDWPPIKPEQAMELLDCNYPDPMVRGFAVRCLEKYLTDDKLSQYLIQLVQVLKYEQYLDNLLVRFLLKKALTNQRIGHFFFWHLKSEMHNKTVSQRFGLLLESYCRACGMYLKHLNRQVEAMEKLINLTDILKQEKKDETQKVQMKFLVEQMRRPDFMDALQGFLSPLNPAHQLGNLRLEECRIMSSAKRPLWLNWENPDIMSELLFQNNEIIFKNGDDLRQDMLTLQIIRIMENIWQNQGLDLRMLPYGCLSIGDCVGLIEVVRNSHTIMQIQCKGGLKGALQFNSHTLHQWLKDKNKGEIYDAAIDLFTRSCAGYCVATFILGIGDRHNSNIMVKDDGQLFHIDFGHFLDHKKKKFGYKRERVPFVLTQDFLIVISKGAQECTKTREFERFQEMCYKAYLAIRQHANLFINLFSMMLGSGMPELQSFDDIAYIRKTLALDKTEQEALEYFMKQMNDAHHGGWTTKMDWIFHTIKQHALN
Chain of CLK4 (Q9HAZ1 whole entry, species assumed): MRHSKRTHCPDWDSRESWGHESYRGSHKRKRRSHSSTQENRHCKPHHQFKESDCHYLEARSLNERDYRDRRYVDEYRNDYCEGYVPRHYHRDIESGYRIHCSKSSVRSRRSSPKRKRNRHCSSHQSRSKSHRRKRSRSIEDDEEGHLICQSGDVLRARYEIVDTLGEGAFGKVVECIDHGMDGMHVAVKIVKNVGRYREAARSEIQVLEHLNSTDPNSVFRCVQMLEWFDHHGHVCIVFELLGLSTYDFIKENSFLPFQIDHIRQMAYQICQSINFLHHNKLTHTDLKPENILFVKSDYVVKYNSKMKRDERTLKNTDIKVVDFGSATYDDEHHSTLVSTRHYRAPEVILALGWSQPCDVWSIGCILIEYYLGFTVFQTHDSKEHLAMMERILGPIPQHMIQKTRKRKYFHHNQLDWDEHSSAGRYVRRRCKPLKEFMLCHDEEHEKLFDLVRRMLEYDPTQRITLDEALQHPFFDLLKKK
Chain of PI4KB (PI4K beta) (Q9UBF8 whole entry): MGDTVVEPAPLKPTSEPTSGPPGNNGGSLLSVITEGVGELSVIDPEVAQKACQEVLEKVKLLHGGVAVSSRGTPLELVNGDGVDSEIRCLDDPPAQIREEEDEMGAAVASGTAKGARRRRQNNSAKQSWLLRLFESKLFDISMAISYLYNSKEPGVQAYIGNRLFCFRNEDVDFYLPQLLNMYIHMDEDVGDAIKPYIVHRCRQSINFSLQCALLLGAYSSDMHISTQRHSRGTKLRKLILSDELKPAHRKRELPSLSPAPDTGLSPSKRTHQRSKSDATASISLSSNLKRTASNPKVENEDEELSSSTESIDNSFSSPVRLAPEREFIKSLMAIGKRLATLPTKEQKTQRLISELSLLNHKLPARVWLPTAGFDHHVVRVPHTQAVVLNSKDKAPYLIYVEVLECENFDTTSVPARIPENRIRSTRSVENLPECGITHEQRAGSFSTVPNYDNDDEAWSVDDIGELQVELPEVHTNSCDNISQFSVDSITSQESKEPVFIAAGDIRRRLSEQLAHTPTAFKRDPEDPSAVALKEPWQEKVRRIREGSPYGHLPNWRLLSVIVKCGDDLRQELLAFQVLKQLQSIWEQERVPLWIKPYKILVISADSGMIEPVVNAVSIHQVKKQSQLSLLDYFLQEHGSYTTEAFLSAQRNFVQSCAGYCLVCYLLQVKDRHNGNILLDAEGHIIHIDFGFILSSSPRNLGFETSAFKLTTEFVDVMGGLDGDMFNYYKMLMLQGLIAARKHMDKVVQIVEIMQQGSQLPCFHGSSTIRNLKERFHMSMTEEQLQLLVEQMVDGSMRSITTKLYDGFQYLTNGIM
Chain of MYLK (MLCK) (Q15746 whole entry): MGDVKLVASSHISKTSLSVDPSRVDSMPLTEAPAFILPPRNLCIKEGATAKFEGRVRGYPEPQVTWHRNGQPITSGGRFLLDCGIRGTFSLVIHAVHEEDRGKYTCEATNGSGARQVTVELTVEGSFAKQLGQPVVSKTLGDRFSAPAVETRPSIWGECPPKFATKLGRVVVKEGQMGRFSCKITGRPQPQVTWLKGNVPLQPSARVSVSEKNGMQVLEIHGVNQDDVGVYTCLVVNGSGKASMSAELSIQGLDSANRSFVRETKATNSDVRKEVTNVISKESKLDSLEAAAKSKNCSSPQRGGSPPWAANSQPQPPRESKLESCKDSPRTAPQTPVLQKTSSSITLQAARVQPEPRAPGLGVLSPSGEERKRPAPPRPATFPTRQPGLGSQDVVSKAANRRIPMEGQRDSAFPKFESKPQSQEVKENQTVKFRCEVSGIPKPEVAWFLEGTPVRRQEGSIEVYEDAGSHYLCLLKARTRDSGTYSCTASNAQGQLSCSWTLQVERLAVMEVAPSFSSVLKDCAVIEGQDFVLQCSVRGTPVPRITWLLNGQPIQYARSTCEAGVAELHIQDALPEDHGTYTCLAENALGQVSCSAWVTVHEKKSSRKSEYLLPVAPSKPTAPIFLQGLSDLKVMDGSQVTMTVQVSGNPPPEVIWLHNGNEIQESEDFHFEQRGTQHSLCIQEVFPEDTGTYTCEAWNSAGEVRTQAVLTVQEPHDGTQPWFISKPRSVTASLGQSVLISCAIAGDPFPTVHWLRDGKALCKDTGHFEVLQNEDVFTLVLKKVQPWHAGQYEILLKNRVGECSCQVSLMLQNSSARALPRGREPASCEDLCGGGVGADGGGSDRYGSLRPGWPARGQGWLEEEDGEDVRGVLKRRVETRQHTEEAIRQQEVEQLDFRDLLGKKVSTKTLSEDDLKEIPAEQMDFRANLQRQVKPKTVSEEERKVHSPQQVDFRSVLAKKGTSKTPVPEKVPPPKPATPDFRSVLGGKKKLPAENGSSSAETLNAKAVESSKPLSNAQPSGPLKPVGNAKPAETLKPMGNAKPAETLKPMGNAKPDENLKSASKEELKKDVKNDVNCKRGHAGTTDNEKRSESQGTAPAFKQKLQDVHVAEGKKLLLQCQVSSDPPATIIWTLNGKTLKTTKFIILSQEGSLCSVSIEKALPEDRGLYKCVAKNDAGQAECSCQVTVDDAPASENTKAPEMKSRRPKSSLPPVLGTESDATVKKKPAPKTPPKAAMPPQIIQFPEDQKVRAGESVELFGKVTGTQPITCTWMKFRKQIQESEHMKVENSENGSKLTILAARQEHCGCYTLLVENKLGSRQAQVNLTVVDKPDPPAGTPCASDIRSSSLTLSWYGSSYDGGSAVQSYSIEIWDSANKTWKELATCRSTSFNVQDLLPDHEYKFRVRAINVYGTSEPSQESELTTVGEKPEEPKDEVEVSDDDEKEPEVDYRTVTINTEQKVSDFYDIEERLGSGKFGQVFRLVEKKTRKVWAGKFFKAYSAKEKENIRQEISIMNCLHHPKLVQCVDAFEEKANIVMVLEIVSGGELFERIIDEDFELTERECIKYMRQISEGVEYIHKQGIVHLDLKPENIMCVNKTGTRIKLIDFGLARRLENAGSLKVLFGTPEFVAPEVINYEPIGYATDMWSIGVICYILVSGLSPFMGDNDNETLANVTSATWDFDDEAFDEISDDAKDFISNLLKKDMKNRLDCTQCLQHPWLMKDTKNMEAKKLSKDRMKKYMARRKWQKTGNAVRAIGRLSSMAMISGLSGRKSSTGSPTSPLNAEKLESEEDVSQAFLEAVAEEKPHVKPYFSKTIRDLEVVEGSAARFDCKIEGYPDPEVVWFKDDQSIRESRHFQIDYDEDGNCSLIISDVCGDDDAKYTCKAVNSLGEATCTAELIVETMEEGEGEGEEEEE

Q: `C#CCOc1ccc(Nc2ncc(Cl)c(Nc3ccccc3NC(=O)C=C)n2)c(OC)c1` [Compound 6] was tested. Which inhibition at 1 µM (CDK8/cyclin C) did it give?
A: Its inhibition at 1 µM is 0%.

Q: And the IC50 (CLK4)?
A: Its IC50 is 1.26 µM.

Q: What about the inhibition at 1 µM (CLK4; [2]) of the same compound?
A: The inhibition at 1 µM was 53%.

Q: And the inhibition at 10 µM (CLK4; 1 h, log[inhibitor] (M) -5.00, LanthaScreen Binding)?
A: Its inhibition at 10 µM is 30%.

Q: And the inhibition at 3.311 µM (CLK4; 1 h, log[inhibitor] (M) -5.48, LanthaScreen Binding)?
A: The inhibition at 3.311 µM was 55%.

Q: And the inhibition at 1.122 µM (CLK4; 1 h, log[inhibitor] (M) -5.95, LanthaScreen Binding)?
A: The inhibition at 1.122 µM was 64%.

Q: What about the inhibition at 0.3715 µM (CLK4; 1 h, log[inhibitor] (M) -6.43, LanthaScreen Binding) of the same compound?
A: The inhibition at 0.3715 µM was 39%.

Q: What about the inhibition at 0.123 µM (CLK4; 1 h, log[inhibitor] (M) -6.91, LanthaScreen Binding) of the same compound?
A: The inhibition at 0.123 µM was 26%.

Q: And the inhibition at 0.0138 µM (CLK4; 1 h, log[inhibitor] (M) -7.86, LanthaScreen Binding)?
A: The inhibition at 0.0138 µM was 15%.

Q: What about the inhibition at 0.001514 µM (CLK4; 1 h, log[inhibitor] (M) -8.82, LanthaScreen Binding) of the same compound?
A: The inhibition at 0.001514 µM was 11%.

Q: And the inhibition at 0.004571 µM (CLK4; 1 h, log[inhibitor] (M) -[…], LanthaScreen Binding)?
A: The inhibition at 0.004571 µM was 8%.

Q: What about the “Inhibition at 1 µM (%)” value (CLK4; CLK4, 1 µM, LanthaScreen Binding, listed as WEL028, 1 µM) of the same compound?
A: Its value is 52%.

Q: And the Apparent fold selectivity (CLK4; IC50 on that kinase divided by IC50 on FES^S700C)?
A: Its Apparent fold selectivity is 272 fold.

Q: And the inhibition at 1 µM (CLK4; read-out: Inhibition at 1 µM (%), CLK4, 1 µM, LanthaScreen Binding)?
A: Its inhibition at 1 µM is 54%.

Q: And the inhibition at 1 µM (KSR2; [2])?
A: The inhibition at 1 µM was 1%.

Q: What about the “Inhibition at 1 µM (%)” value (KSR2) of the same compound?
A: Its value is 2%.

Q: And the “Inhibition at 1 µM (%)” value (KSR2; listed as WEL028, 1 µM)?
A: The value was 0%.

Q: What about the inhibition at 1 µM (MYLK (MLCK); 1 h) of the same compound?
A: The inhibition at 1 µM was 15%.

Q: And the inhibition at 1 µM (MYLK (MLCK); read-out: Inhibition at 1 µM (%))?
A: The inhibition at 1 µM was 15%.

Q: What about the inhibition at 1 µM (PI4KB (PI4K beta); [2]) of the same compound?
A: The inhibition at 1 µM was 34%.

Q: And the “Inhibition at 1 µM (%)” value (PI4KB (PI4K beta); PI4KB (PI4K beta), 1 µM, Adapta, ATP Km app, listed as WEL028, 1 µM)?
A: The value was 37%.

Q: What about the inhibition at 1 µM (PI4KB (PI4K beta); read-out: Inhibition at 1 µM (%), PI4KB (PI4K beta), 1 µM, Adapta, ATP Km app) of the same compound?
A: Its inhibition at 1 µM is 30%.

Q: And the inhibition at 1 µM [1, 2]?
A: The inhibition at 1 µM was 1%.

Q: What about the “Inhibition at 1 µM (%)” value [1] of the same compound?
A: Its value is 2%.

Q: What about the “Inhibition at 1 µM (%)” value ([1]; listed as WEL028, 1 µM) of the same compound?
A: The value was -1%.

Q: And the inhibition at 1 µM (PRKCD (PKC delta))?
A: The inhibition at 1 µM was 14%.
